Legend:
[1] = Relative solubility of polymorphic forms; assay type: physicochemical; details: at temperatures below 45° C.
Experimental: (§1) Forms I and IV are enantiotropic with Form IV converting to Form I at temperatures greater than 45° C. when in contact with organic solvents.

[2] = Relative thermodynamic stability and interconversion of polymorphic forms; assay type: physicochemical
Experimental: as §1

- solubility relative to Form I [1]: slightly less soluble
- stability relative to Form I ([2]; at temperatures below 45° C.): slightly more stable
- temperature at which Form IV converts to Form I (enantiotropic) ([2]; in contact with organic solvents): greater than 45 °C
SMILES: Cc1ccc(-c2ncc(Cl)cc2-c2ccc(S(C)(=O)=O)cc2)cn1 [Form IV, 5-chloro-3-(4-methanesulfonylphenyl)-6′-methyl-[2,3′]bipyridinyl]

Reference: patent publication US6858631B1, “Polymorphic, amorphous and hydrated forms of 5-chloro-3-(4-methanesulfonylphenyl)-6′-methyl-[2,3′]bipyridinyl” (Merck & Co., Inc., priority 1999, dated 2005)
